From US20170320870A1 (Medical Research Council Technology, priority 2009, published 2017)
Structures can show the parent of a compound that is named as a salt.

These compounds were tested against T1, LRRK2 wild type (recombinant human, catalytic domain amino acids 970-2527, GST-tagged) (Homo sapiens, UniProt Q5S007) (assay: LRRK2 wild type protein kinase assay ([γ-33P] ATP, peptide substrate […]), IC50). Conditions: LRRK2 (variant not given); read-out: Potency score, LRRK2 IC50.
T1 construct: The wild type used was recombinant human, catalytic domain (amino acids 970-2527) GST-tagged, expressed in insect cells; GST; purchased Invitrogen Corporation PV4873; host or cells: insect cells
T1 sequence (Q5S007 970-2527): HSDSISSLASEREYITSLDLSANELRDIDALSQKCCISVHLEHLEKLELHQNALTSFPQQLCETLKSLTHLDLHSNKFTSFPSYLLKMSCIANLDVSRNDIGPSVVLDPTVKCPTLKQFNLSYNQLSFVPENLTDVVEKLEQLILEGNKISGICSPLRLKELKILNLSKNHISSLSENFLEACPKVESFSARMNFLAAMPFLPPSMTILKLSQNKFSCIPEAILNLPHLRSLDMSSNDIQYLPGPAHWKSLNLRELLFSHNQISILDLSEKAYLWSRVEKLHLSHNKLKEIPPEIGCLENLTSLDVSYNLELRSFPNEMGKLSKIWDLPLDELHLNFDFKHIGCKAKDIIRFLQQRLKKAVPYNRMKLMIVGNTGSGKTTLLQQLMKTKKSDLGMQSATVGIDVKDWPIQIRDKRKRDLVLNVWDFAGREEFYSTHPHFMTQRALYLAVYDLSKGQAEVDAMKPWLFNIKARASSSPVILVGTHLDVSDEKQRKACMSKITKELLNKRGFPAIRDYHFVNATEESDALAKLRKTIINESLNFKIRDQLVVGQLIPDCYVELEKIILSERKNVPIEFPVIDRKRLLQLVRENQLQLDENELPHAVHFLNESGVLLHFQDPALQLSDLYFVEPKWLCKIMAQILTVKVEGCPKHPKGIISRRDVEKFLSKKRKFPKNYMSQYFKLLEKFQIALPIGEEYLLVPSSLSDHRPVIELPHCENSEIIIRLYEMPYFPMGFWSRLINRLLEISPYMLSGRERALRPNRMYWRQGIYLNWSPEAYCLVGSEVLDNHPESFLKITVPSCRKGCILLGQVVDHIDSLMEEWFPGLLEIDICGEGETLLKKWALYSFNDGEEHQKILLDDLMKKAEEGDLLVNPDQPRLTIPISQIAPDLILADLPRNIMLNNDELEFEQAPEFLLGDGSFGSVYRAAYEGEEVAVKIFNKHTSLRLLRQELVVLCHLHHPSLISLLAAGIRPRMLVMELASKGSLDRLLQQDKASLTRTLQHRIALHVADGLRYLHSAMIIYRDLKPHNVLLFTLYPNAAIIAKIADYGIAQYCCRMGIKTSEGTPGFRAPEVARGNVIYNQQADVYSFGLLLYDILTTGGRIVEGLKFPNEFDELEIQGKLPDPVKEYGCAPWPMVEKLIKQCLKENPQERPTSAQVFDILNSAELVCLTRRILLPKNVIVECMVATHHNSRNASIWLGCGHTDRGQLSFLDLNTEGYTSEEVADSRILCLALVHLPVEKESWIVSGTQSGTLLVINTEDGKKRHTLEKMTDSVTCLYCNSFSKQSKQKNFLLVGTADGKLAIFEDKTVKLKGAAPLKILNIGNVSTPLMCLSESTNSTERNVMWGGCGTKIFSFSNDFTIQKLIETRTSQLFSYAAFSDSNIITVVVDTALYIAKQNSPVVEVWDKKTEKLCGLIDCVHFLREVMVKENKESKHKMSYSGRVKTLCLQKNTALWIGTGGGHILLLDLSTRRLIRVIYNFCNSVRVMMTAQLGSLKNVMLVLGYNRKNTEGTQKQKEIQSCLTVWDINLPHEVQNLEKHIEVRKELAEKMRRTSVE
Type: biochemical
From the text: All LRRK2 protein kinases were of human origin and were sourced from Invitrogen Corporation (Carlsbad, Calif. 92008 USA) unless otherwise indicated. The active mutant used was recombinant human, catalytic domain (amino acids 970-2527) containing a G2019S mutation, GST-tagged, expressed in insect cells (Invitrogen Cat#PV4881). The wild type used was recombinant human, catalytic domain (amino acids 970-2527) GST-tagged, expressed in insect cells (Invitrogen Cat#PV4873). The kinase dead mutant used was recombinant human, catalytic domain (amino acids 970-2527) containing a D1994A mutation, GST-tagged, expressed in insect cells (Invitrogen Cat#PM4041AE). No special measures were taken to activate any of the kinases.
All assays were carried out at room temperature (˜21° C.) and were linear with respect to time and enzyme concentration under the conditions used. Assays were performed for 180 min in a 96 well format. LRRK2 was present at a concentration of approximately 5 nM. The enzyme was diluted and assayed in 50 mM Tris-HCl pH7.5, 0.1 mM EGTA, 1 mM DTT and 10 mM MgCl2. The concentration of magnesium chloride in the assay was 10 mM. The [γ-33P] […] The peptide substrate in the assay was […] at 100 μM.
The assays were initiated with Mg/ATP and stopped by the addition of 25 μl/well 50% orthophosphoric acid. Reactions were harvested onto Whatman P81 Unifilter Plates (Fisher Scientific. Loughborough, LE115RG, UK. Cat# FDU-105-020U) using a Tomtec harvester. (Tomtec Hamden, Conn. 06514. USA) Plates were counted using a Perkin Elmer Top Count NX7. (Perkin Elmer, Shelton Conn. 06484-4794 USA)
IC50 values of inhibitors were determined after carrying out assays at 10 different concentrations of each compound in duplicate.
In the case of `Cc1n[nH]c2ccnc(Nc3ccc(-c4cnco4)cc3)c12` [Example 87, (3-Methyl-1H-pyrazolo[4,3-c]pyridin-4-yl)-(4-oxazol-5-yl-phenyl)-amine], the IC50 is reported as 100 to 1000 nM. `Cc1n[nH]c2ccnc(Nc3cnn(C)c3)c12` [Example 88, (3-Methyl-1H-pyrazolo[4,3-c]pyridin-4-yl)-(1-methyl-1H-pyrazol-4-yl)-amine] gave an IC50 of 100 to 1000 nM. Work on `Cc1n[nH]c2ccnc(Nc3ccc(N4CCCC4=O)cc3)c12` [Example 89, 1-[4-(3-Methyl-1H-pyrazolo[4,3-c]pyridin-4-ylamino)-phenyl]-pyrrolidin-2-one] yielded an IC50 of 100 to 1000 nM. For `Cc1n[nH]c2ccnc(Nc3ccc4cnn(C)c4c3)c12` [Example 90, (1-Methyl-1H-indazol-6-yl)-(3-methyl-1H-pyrazolo[4,3-c]pyridin-4-yl)-amine], the IC50 was 100 to 1000 nM. `Cc1n[nH]c2ccnc(N(C)CC(C)C)c12` [Example 91, Isobutyl-methyl-(3-methyl-1H-pyrazolo[4,3-cc]pyridin-4-yl)-amine] showed an IC50 of 1000 to 10000 nM. Compound `Cc1n[nH]c2ccnc(Nc3cccc(N(C)C)c3)c12` [Example 92, N,N-Dimethyl-N′-(3-methyl-1H-pyrazolo[4,3-c]pyridin-4-yl)-benzene-1,3-diamine] has an IC50 of 1000 to 10000 nM. `Cc1n[nH]c2ccnc(Nc3ccc4cn[nH]c4c3)c12` [Example 93, (1H-Indazol-6-yl)-(3-methyl-1H-pyrazolo[4,3-c]pyridin-4-yl)-amine] was tested, and the IC50 was 100 to 1000 nM. For `Cc1n[nH]c2ccnc(Nc3ccccn3)c12` [Example 94, (3-Methyl-1H-pyrazolo[4,3-c]pyridin-4-yl)-pyridin-2-yl-amine], the IC50 was 1000 to 10000 nM. Work on `Cc1n[nH]c2ccnc(N(C)Cc3ccccc3)c12` [Example 95, Benzyl-methyl-(3-methyl-1H-pyrazolo[4,3-c]pyridin-4-yl)-amine] yielded an IC50 of 1000 to 10000 nM. `Cc1n[nH]c2ccnc(Nc3ccc(-n4cncn4)cc3)c12` [Example 96, (3-Methyl-1H-pyrazolo[4,3-c]pyridin-4-yl)-(4-1,2,4-triazol-1-yl-phenyl)-amine hydrochloride salt] gave an IC50 of 100 to 1000 nM. With `COc1ccc(CNc2nccc3[nH]nc(C)c23)c(OC)c1` [Example 97, (2,4-Dimethoxy-benzyl)-(3-methyl-1H-pyrazolo[4,3-c]pyridin-4-yl)-amine] the IC50 was 1000 to 10000 nM. In the case of `Cc1n[nH]c2ccnc(NC3CCN(Cc4ccccc4)CC3)c12` [Example 98, (1-Benzyl-piperidin-4-yl)-(3-methyl-1H-pyrazolo[4,3-c]pyridin-4-yl)-amine], the IC50 is reported as 1000 to 10000 nM. For `Cc1n[nH]c2ccnc(Nc3ccc4c(cnn4C)c3)c12` [Example 99, (1-Methyl-1H-indazol-5-yl)-(3-methyl-1H-pyrazolo[4,3-c]pyridin-4-yl)-amine], the IC50 was 100 to 1000 nM. `Cc1n[nH]c2ccnc(C(=O)NC3CCCCC3)c12` [Example 100, 3-Methyl-1H-pyrazolo[4,3-c]pyridine-4-carboxylic acid cyclohexylamide] showed an IC50 of 1000 to 10000 nM. With `CC(=O)N1CCC(Nc2nccc3[nH]nc(C)c23)CC1` [Example 101, 1-[4-(3-Methyl-1H-pyrazolo[4,3-c]pyridin-4-ylamino)-piperidin-1-yl]-ethanone] the IC50 was 100 to 1000 nM. `COCCC(=O)N1CCC(Nc2nccc3[nH]nc(C)c23)CC1` [Example 102, 3-Methoxy-1-[4-(3-methyl-1H-pyrazolo[4,3-c]pyridin-4-ylamino)-piperidin-1-yl]-propan-1-one] gave an IC50 of 1000 to 10000 nM. With `Cc1n[nH]c2ccnc(NC3CCN(C(=O)CCN4CCOCC4)CC3)c12` [Example 103, 1-[4-(3-Methyl-1H-pyrazolo[4,3-c]pyridin-4-ylamino)-piperidin-1-yl]-3-morpholin-4-yl-propan-1-one] the IC50 was 1000 to 10000 nM. Work on `Cc1n[nH]c2ccnc(NC3CCN(C(=O)C4CCC4)CC3)c12` [Example 104, Cyclobutyl-[4-(3-methyl-1H-pyrazolo[4,3-c]pyridin-4-ylamino)-piperidin-1-yl]-methanone] yielded an IC50 of 1000 to 10000 nM. `COc1ccc(C(=O)N2CCC(Nc3nccc4[nH]nc(C)c34)CC2)cc1` [Example 105, (4-Methoxy-phenyl)-[4-(3-methyl-1H-pyrazolo[4,3-c]pyridin-4-ylamino)-piperidin-1-yl]-methanone] gave an IC50 of 1000 to 10000 nM. For `Cc1n[nH]c2ccnc(Nc3ccc(C(=O)NC4CCCC4)cc3)c12` [Example 106, N-Cyclopentyl-4-(3-methyl-1H-pyrazolo[4,3-c]pyridin-4-ylamino)-benzamide], the IC50 was 1000 to 10000 nM. Compound `Cc1n[nH]c2ccnc(Nc3ccc(C(=O)N(C)C4CCCCC4)cc3)c12` [Example 107, N-Cyclohexyl-N-methyl-4-(3-methyl-1H-pyrazolo [4,3-c]pyridin-4-ylamino)-benzamide] has an IC50 of 1000 to 10000 nM. With `COCCNC(=O)c1ccc(Nc2nccc3[nH]nc(C)c23)cc1` [Example 108, N-(2-Methoxy-ethyl)-4-(3-methyl-1H-pyrazolo [4,3-c]pyridin-4-ylamino)-benzamide] the IC50 was 1000 to 10000 nM. In the case of `Cc1n[nH]c2ccnc(Nc3ccc(C(=O)N(C)c4ccccc4)cc3)c12` [Example 109, N-Methyl-4-(3-methyl-1H-pyrazolo[4,3-c]pyridin-4-ylamino)-N-phenyl-benzamide], the IC50 is reported as 1000 to 10000 nM. `Cc1n[nH]c2ccnc(Nc3ccc(C(=O)N4CCC(F)(F)CC4)cc3)c12` [Example 110, (4,4-Difluoro-piperidin-1-yl)-[4-(3-methyl-1H-pyrazolo[4,3-c]pyridin-4-ylamino)-phenyl]-methanone] gave an IC50 of 100 to 1000 nM. For `COc1ccccc1NC(=O)c1ccc(Nc2nccc3[nH]nc(C)c23)cc1` [Example 111, N-(2-Methoxy-phenyl)-4-(3-methyl-1H-pyrazolo[4,3-c]pyridin-4-ylamino)-benzamide], the IC50 was 1000 to 10000 nM. With `Cc1n[nH]c2ccnc(Nc3ccc(C(=O)N4CCOCC4)cc3)c12` [Example 112, [4-(3-Methyl-1H-pyrazolo[4,3-c]pyridin-4-ylamino)-phenyl]-morpholin-4-yl-methanone] the IC50 was 100 to 1000 nM. Work on `Cc1n[nH]c2ccnc(Nc3ccc(C(=O)N4CCCC4)cc3)c12` [Example 113, [4-(3-Methyl-1H-pyrazolo[4,3-c]pyridin-4-ylamino)-phenyl]-pyrrolidin-1-yl-methanone] yielded an IC50 of 100 to 1000 nM. For `Cc1n[nH]c2ccnc(OC3CCCCC3)c12` [Example 114, 4-Cyclohexyloxy-3-methyl-1H-pyrazolo[4,3-c]pyridine], the IC50 was < 100 nM. For `Cc1n[nH]c2ccnc(OC3CCCC3)c12` [Example 115, 4-Cyclopentyloxy-3-methyl-1H-pyrazolo[4,3-c] pyridine], the IC50 was < 100 nM. In the case of `Cc1n[nH]c2ccnc(OC3CCN(C)CC3)c12` [Example 116, 3-Methyl-4-(1-methyl-piperidin-4-yloxy)-1H-pyrazolo[4,3-c] pyridine], the IC50 is reported as 1000 to 10000 nM. `Cc1n[nH]c2ccnc(Oc3cccc(F)c3)c12` [Example 117, 4-(3-Fluoro-phenoxy)-3-methyl-1H-pyrazolo [4,3-c]pyridine] gave an IC50 of 100 to 1000 nM. `Cc1n[nH]c2ccnc(OC3CCOCC3)c12` [Example 118, 3-Methyl-4-(tetrahydro-pyran-4-yloxy)-1H-pyrazolo[4,3-c]pyridine] gave an IC50 of 100 to 1000 nM. `Cc1n[nH]c2ccnc(OC3CCN(C(C)C)CC3)c12` [Example 119, 4-(1-Isopropyl-piperidin-4-yloxy)-3-methyl-1H-pyrazolo[4,3-c]pyridine] was tested, and the IC50 was 1000 to 10000 nM. `Cc1n[nH]c2ccnc(Oc3ccc(-n4ccnc4)cc3)c12` [Example 120, 4-(4-Imidazol-1-yl-phenoxy)-3-methyl-1H-pyrazolo[4,3-c]pyridine] gave an IC50 of 100 to 1000 nM. In the case of `CC[C@@H](C)Oc1nccc2[nH]nc(C)c12` [Example 122, 4-((R)-sec-Butoxy)-3-methyl-1H-pyrazolo[4,3-c] pyridine], the IC50 is reported as < 100 nM. `Cc1n[nH]c2ccnc(OCC3CC3)c12` [Example 123, 4-Cyclopropyl-methoxy-3-methyl-1H-pyrazolo [4,3-c]pyridine] was tested, and the IC50 was 100 to 1000 nM. Compound `CCOc1nccc2[nH]nc(C)c12` [Example 124, 4-Ethoxy-3-methyl-1H-pyrazolo[4,3-c]pyridine] has an IC50 of 100 to 1000 nM. For `Cc1n[nH]c2ccnc(Cc3ccccc3)c12` [Example 125, 4-Benzyl-3-methyl-1H-pyrazolo[4,3-c]pyridine], the IC50 was 1000 to 10000 nM. Work on `Cc1n[nH]c2ccnc(CC3CCCCC3)c12` [Example 126, 4-Cyclohexylmethyl-3-methyl-1H-pyrazolo[4,3-c]pyridine] yielded an IC50 of 1000 to 10000 nM. `Cc1n[nH]c2ccnc(C3CCCC3)c12` [Example 127, 4-Cyclopentyl-3-methyl-1H-pyrazolo[4,3-c]pyridine] showed an IC50 of 100 to 1000 nM. For `Cc1n[nH]c2ccnc(CCC(C)C)c12` [Example 128, 3-Methyl-4-(3-methyl-butyl)-1H-pyrazolo[4,3-c]pyridine], the IC50 was 1000 to 10000 nM. `Cc1n[nH]c2ccnc(-c3ncco3)c12` [Example 129, 3-Methyl-4-oxazol-2-yl-1H-pyrazolo[4,3-c]pyridine] was tested, and the IC50 was 1000 to 10000 nM. With `Cc1n[nH]c2ccnc(-c3nccs3)c12` [Example 130, 3-Methyl-4-thiazol-2-yl-1H-pyrazolo[4,3-c]pyridine] the IC50 was 100 to 1000 nM.
